Earlier results on two sequences are cited in US10414795B2, “Techniques of preparing collagen active peptides” (Technical Institute of Physics and Chemistry, Chinese …, priority 2016, dated 2019).

For the series, the system named is human breast cancer cell line MCF-7. To be noted: read-out: IC50, dose-dependent inhibition effect.

On to “LPHVLTPEAGAT [Leu-Pro-His-Val-Leu-Thr-Pro-Glu-Ala-Gly-Ala-Thr, anticancer peptide (1206 Da) from tuna dark muscle byproduct hydrolysate]”, for which the concentration for half-maximal inhibition (IC50) was 8.1 µM.

In the case of “PTAEGVYMVT [Pro-Thr-Ala-Glu-Gly-Val-Tyr-Met-Val-Thr, anticancer peptide (1124 Da) from tuna dark muscle byproduct hydrolysate]”, the half-inhibitory concentration (IC50) is 8.8 µM.

By IC50 is commonly meant the concentration that inhibits the measured activity by half.
